Data on 1 compound can be found in patent US9487530B2, “Transient protection of normal cells during chemotherapy” (G1 Therapeutics, Inc., priority 2013, dated 2016).

Data set [1] can be described thus: Metabolic stability in liver microsomes. To be noted: each of the species tested (human, monkey, dog, rat, mouse); 1 uM. The format is in vitro ADME. As for the experimental part:
Human, mouse, and dog liver microsomes were purchased from Xenotech, and Sprague-Dawley rat liver microsomes were prepared by Absorption Systems. The reaction mixture comprising 0.5 mg/mL of liver microsomes, 100 mM of potassium phosphate, pH 7.4, 5 mM of magnesium chloride, and 1 uM of test compound was prepared. The test compound was added into the reaction mixture at a final concentration of 1 uM. An aliquot of the reaction mixture (without cofactor) was incubated in shaking water bath at 37 deg. C. for 3 minutes. The control compound, testosterone, was run simultaneously with the test compound in a separate reaction. The reaction was initiated by the addition of cofactor (NADPH), and the mixture was then incubated in a shaking water bath at 37 deg. C. Aliquots (100 μL) were withdrawn at 0, 10, 20, 30, and 60 minutes for the test compound and 0, 10, 30, and 60 minutes for testosterone. […] Test compound samples were analyzed using the Orbitrap high resolution mass spectrometer to quantify the disappearance of parent test compound and detect the appearance of metabolites. […] Half-lives were calculated using GraphPad software, fitting to a single-phase exponential decay equation.
When calculated half-life was longer than the duration of the experiment, the half-life was expressed as >the longest incubation time. The calculated half-life is also listed in parentheses. […]
In general terms: Liver microsomes are a subcellular fraction often used to study metabolism.

Data set [2] concerns tHS68 cells (CDK4/6-dependent cell line). The data set is described as follows: Cell cycle arrest (propidium iodide), tHS68. The format is cell-based. To be noted: 300 nM for 24 hours. An excerpt: (§1) To test the ability of Cdk4/6 inhibitors to induce a clean G1-arrest, a cell based screening method was used consisting of two Cdk4/6-dependent cell lines (tHS68 and WM2664; Rb-positive) and one Cdk4/6-independent (A2058; Rb-negative) cell line. […] At the conclusion of the experiment, cells were harvested, fixed, and stained with propidium iodide (a DNA intercalator), which fluoresces strongly red (emission maximum 637 nm) when excited by 488 nm light. Samples were run on Dako Cyan flow cytometer and >10,000 events were collected for each sample. Data were analyzed using FlowJo 2.2 software developed by TreeStar, Inc.

For the next data set, the system named is HSPCs. The data set is described as follows: Bone marrow HSPC proliferation by EdU incorporation and flow cytometry. The data set is classed as in vivo, mouse. As for the experimental part:
Mice were then sacrificed at the indicated times (0, 12, 24, 36, or 48 hours following compound administration), and bone marrow was harvested (n=3 mice per time point), as previously described (Johnson et al. J. Clin. Invest. (2010) 120(7), 2528-2536). Four hours before the bone marrow was harvested, mice were treated with 100 μg of EdU by intraperitoneal injection (Invitrogen). Bone marrow mononuclear cells were harvested and immunophenotyped using previously described methods and percent EdU positive cells were then determined (Johnson et al. J. Clin. Invest. (2010) 120(7), 2528-2536). In brief, HSPCs were identified by expression of lineage markers (Lin−), ScaI (S+), and c-Kit (K+).
Four hours before animals were sacrificed and the bone marrow was harvested, mice were treated with 100 μg of EdU by intraperitoneal injection. Three mice per group were sacrificed at 12 hours and the remaining three animals per group were sacrificed at 24 hours. Results are shown in FIG. 6A as the ratio of EdU positive cells for treated animals at 12 or 24 hour time points compared to control.
Further experiments were completed with Compound T examining dose response and longer periods of compound treatment. […] […].
Both compounds were administered at 150 mg/kg by oral gavage. One hour prior to harvesting bone marrow, EdU was IP injected to label cycling cells. Bone marrow was harvested at 12, 24, 36, and 48 hours after compound treatment and the percentage of EdU positive HSPC cells was determined at each time point.
In general terms: In flow cytometry, cells or beads pass a laser one at a time.

For data set [3], the system named is human renal proximal tubule cells. The data set can be described thus: gamma-H2AX and caspase 3/7 in renal proximal tubule cells with cisplatin. The data set is classed as cell-based. As for the experimental part: Normal renal proximal tubule epithelial cells were obtained from American Type Culture Collection (ATCC, Manassas, Va.). Cells were grown in an incubator at 37° C. in a humidified atmosphere of 5% CO2 in Renal Epithelial Cell Basal Media (ATCC) supplemented with Renal Epithelial Cell Growth Kit (ATCC) in 37° C. humidified incubator. […] For the γ-H2AX assay, cells were fixed, permeabilized, and stained with anti-γ-H2AX as per the γ-H2AX Flow Kit (Millipore) and quantitated by flow cytometry. Data was analyzed using FlowJo 2.2 software developed by TreeStar, Inc. Caspase 3/7 activation was measured using the Caspase-Glo 3/7 Assay System (Promega, Madison, Wis.) by following the manufacturer's instructions.

Data set [4] in a line: Mouse pharmacokinetics, oral gavage and intravenous. The format is in vivo.
Data set [5] deals with WM2664 cells (CDK4/6-dependent cell line). The data set is described as follows: Cell cycle arrest (propidium iodide), WM2664. The data set is classed as cell-based. As to conditions: 300 nM for 24 hours.
Source text: as §1

Data set [6] has as its system 456 (395 non-mutant) kinases. The data set is described as follows: DiscoveRx KINOMEscan profiling. The format is binding. As to conditions: 1000 nM. The method, then:
The compound was screened using a single concentration of 1000 nM (>1000 times the 1050 on Cdk4). Results from this screen confirmed the high potency against Cdk4 and high selectivity versus Cdk2.

SMILES strings stand for the structures.

For the compound `CN1CCN(c2ccc(Nc3ncc4cc5n(c4n3)C3(CCCCC3)CNC5=O)nc2)CC1` [T, 2′-((5-(4-methylpiperazin-1-yl)pyridin-2-yl)amino)-7′,8′-dihydro-6′H-spiro[cyclohexane-1,9′-pyrazino[1′,2′:1,5]pyrrolo[2,3-d]pyrimidin]-6′-one], the “half-life in liver microsomes” value in data set [1] is reported as “shorter half-life than PD0332991”. Moreover, the S-phase peak entry in data set [2] and in data set [5] was “causes a loss of the S-phase peak” each time. Further, the “EdU incorporation into HSPCs compared to control” value with HSPCs (150 mg/kg oral gavage, 12 and 24 hours, FIG. 6A) is listed as “reduction in EdU incorporation at 12 hours which was starting to return to normal at 24 hours”. Further, the “time by which proliferation of HSPCs resumes” value in the data set with HSPCs (single 150 mg/kg oral dose, FIG. 7) was ≤ 24 h. Further, in data set [3] (cisplatin 25 uM, 50 uM, or 100 uM), the “caspase 3/7 activation” value is “dose-dependent reduction in caspase 3/7 activation”. Besides, the “DNA damage as measured by gamma-H2AX formation” value in data set [3] (in combination with 25 uM cisplatin) was “attenuated DNA damage”. The “F (oral bioavailability)” value in data set [4] was 80%. Moreover, the “number of 395 non-mutant kinases inhibited” value in data set [6] (inhibitory threshold 65%) is listed as 92 (23.3%); in data set [6] (inhibitory threshold 90%), 31 (7.8%); in data set [6] (inhibitory threshold 99%) it was 6 (1.5%).
